In patent US20200370102A1, “BIOMARKER INDICATING RESPONSE TO POZIOTINIB THERAPY FOR CANCER” (HANMI PHARM. CO., LTD., priority 2017, published 2020):

Legend:
[1] = system: HER2-positive metastatic breast cancer; test: open-label, multicenter study of poziotinib monotherapy in breast cancer patients, with genotype (NGS) analysis; format: in vivo, human
Procedure: Poziotinib is a pan-HER inhibitor small molecule breast cancer therapeutic agent under clinical development. […] Recently, through an open-label, multicenter, two-phase study of poziotinib monotherapy, it was evaluated whether poziotinib was an option for breast cancer patients with HER2-positive metastatic breast cancer who twice or more experienced the failure of 2 HER2 target treatments. The genetic profile of HER2-positive metastatic breast cancer was evaluated, and the potential biomarkers of poziotinib for HER2-positive metastatic breast cancer (MBC) were investigated.
The experimental method is as follows. All participants with MBC were diagnosed with HER2-positive metastatic breast cancer according to the American Society of Clinical Oncology/College of-American Pathologist Her2 guideline. Fresh tissue samples or FFPE samples were obtained from these patients and used to extract DNA and RNA for next generation sequencing (NGS).
DNA and RNA were extracted from the samples and NGS was performed thereon. Targeted deep sequencing was performed by using a customized 381 cancer gene panel (CancerSCAN™, Samsung Hospital, Inc.) and the correlation among sequencing data, immunohistochemistry, and clinical outcome was analyzed.
An effective amount of poziotinib was administered to the breast cancer patients. The prognosis of the patients was observed. Prognosis was classified into partial remission (PR), stable disease (SD), and progressive disease (PD). For each patient, progressive free survival (PFS) was also identified.
From April 2015 to February 2016, 106 patients enrolled for clinical trials. Biomarker data were available for 75 of these patients.

[2] = system: EGFR family including Her1, Her2, and Her4; conditions: cited from earlier work
[3] = system: cancer cells having overexpression of Her1 or Her2 or activated mutations; conditions: in vitro, various carcinomas; cited from earlier work
[4] = system: lung cancer cells resistant to gefitinib or erlotinib; conditions: cited from earlier work
[5] = system: transplanted tumor cells; conditions: xenotransplantation animal model; cited from earlier work
[6] = among the 75 patients with biomarker data

## C=CC(=O)N1CCC(Oc2cc3c(Nc4ccc(Cl)c(Cl)c4F)ncnc3cc2OC)CC1 [Poziotinib, 1-[4-[4-(3,4-dichloro-2-fluoroanilino)-7-methoxyquinazolin-6-yl]oxypiperidin-1-yl]prop-2-en-1-one]
[1]; BARD1 gene mutation present (mutation number=9)
  prognosis after poziotinib by genotype: poor prognosis
[1]; CDK12 copy number amplification (42 subjects)
  prognosis after poziotinib by genotype: good prognosis
[1]; ERBB3 gene mutation present (mutation number=10)
  prognosis after poziotinib by genotype: poor prognosis
[1]; NOTCH gene mutation present (mutation number=13)
  prognosis after poziotinib by genotype: good prognosis
[1]; PIK3CA gene mutation present (mutation number=34)
  prognosis after poziotinib by genotype: poor prognosis
[1]; SETBP1 gene mutation present (mutation number=13)
  prognosis after poziotinib by genotype: poor prognosis
[1]; SH2B3 gene mutation present (mutation number=6)
  prognosis after poziotinib by genotype: good prognosis
[1]; [6]
  number of patients with partial remission (PR): 14
  number of patients with progressive disease (PD): 20
[1]; copy number amplification of the ERBB2 gene
  prognosis after poziotinib by genotype: good prognosis
[1]; copy number deletion of the BRCA1 gene
  prognosis after poziotinib by genotype: bad prognosis
[1]; copy number deletion of the STAT3 gene
  prognosis after poziotinib by genotype: bad prognosis
[1]; deletion or amplification of the FGFR3 gene (copy number variations=5)
  prognosis after poziotinib by genotype: bad prognosis
[1]; patients 1 to 10 of the 13 patients with ERBB2 mutations, FIG. 13
  prognosis of patients with ERBB2 gene or upstream mutations: partial remission and stable disease
[2]
  inhibition of the EGFR family: selectively and irreversibly inhibits
[3]
  growth of cancer cells: inhibits the growth of cancer cells
[4]
  growth of lung cancer cells: effectively inhibits the growth
[5]
  tumor growth: effectively blocks tumor growth
